Reference: paper PMC6864482, “Novel C7-Substituted Coumarins as Selective Monoamine Oxidase Inhibitors: Discovery, Synthesis and Theoretical Simulation” (Molecules, 2019)
Where two headings read alike, the source gives them in different places.

Tests used:
hMAO-B = target: T1, hMAO-B (Homo sapiens, UniProt P27338); settings: previously identified BRS-3D hits, cited from earlier work; for MAO-B pIC50: pIC50 = −log(IC50); for IC50: read-out: MAO-B IC50
T1 sequence (P27338 1-520): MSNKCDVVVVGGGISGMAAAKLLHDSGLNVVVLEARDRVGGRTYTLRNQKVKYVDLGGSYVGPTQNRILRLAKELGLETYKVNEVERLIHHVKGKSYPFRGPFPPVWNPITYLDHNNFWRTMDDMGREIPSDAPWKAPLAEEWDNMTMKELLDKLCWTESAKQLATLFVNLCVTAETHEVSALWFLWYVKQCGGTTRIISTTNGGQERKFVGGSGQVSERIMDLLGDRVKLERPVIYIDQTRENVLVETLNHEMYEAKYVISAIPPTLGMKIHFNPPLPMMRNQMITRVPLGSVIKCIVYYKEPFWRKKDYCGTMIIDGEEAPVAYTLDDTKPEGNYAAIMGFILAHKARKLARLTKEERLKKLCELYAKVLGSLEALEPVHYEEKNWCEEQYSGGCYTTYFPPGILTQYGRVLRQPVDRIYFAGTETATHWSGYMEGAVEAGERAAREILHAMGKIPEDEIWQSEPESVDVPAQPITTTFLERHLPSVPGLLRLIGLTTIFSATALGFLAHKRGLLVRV

hMAO-A = target: T2, hMAO-A (Homo sapiens, UniProt P21397); settings: previously identified BRS-3D hits, cited from earlier work; for MAO-A pIC50: pIC50 = −log(IC50); for IC50: read-out: MAO-A IC50
T2 sequence (P21397 1-527): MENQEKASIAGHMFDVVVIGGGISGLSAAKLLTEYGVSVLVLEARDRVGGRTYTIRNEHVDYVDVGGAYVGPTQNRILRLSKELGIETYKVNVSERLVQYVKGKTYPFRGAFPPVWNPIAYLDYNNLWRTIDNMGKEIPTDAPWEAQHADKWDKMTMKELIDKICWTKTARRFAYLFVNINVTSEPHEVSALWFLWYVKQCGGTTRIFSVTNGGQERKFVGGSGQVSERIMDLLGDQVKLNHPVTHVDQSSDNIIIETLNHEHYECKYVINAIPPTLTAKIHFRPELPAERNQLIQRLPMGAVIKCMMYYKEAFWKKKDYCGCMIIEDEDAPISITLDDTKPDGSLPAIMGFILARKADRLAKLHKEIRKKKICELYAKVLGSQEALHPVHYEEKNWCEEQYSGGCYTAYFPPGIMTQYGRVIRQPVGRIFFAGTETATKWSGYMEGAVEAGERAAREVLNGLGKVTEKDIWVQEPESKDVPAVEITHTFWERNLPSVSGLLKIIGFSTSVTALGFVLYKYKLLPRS

SMILES | MAO-B Avg. Inh% at 10 uM (hMAO-B) [%] | MAO-B pIC50 (hMAO-B) | IC50 (hMAO-B) [nM] | MAO-A Avg. Inh% at 10 uM (hMAO-A) [%] | MAO-A pIC50 (hMAO-A) | IC50 (hMAO-A) [nM] | MAO-B pIC50 (hMAO-B; listed as M43 (7a)) | MAO-A pIC50 (hMAO-A; listed as M43 (7a)) | melting point [°C]
CCCc1cc(=O)oc2cc(OCC(=O)N(C)C)ccc12 [M31] | 16 | 4.2 | 64600 | 92 | 6.3 | 500 | – | – | –
Cc1c(C)c2cc(Cl)c(OCC(=O)N(C)C)cc2oc1=O [M32] | 90 | 6.2 | 600 | 12 | 4.1 | 81300 | – | – | –
Cc1cc(=O)oc2cc(OCC(=O)N(C)C)ccc12 [M33] | 8 | – | – | 41 | – | – | – | – | –
Cc1cc(=O)oc2cc(OCC(=O)N(C)C)c(Cl)cc12 [M34] | 40 | – | – | 19 | – | – | – | – | –
Cc1cc(=O)oc2cc(Oc3nnc(-c4ccccc4)s3)ccc12 [M43, 4-Methyl-7-((5-phenyl-1,3,4-thiadiazol-2-yl)oxy)-2H-chromen-2-one] | 96 | – | 360 | – | – | 160 | 6.4 | 6.8 | 124 to 125
